# What was measured:
# Format in all cases: cell-based, human
# [1] = tested on: fibronectin expression in ES2 cells; test: Microarray gene expression, Table 1
# Protocol: (§1) Y/D is the ratio (in folds) of gene expression in cells treated with compound Y as compared with those of the no drug control (D),
# (§2) YM/D is the ratio of gene expression in cells treated with compound YM (ACH-Y, Y without sugar moiety) compared with those of the no drug control (D)
# (§3) Cell culture and drug-treatment.: ES2 cells were seeded in a T-25 flask with 4.5 million cells per flask for 24 hours. Cell culture was replaced with fresh medium with xanifolia-Y (Y) or DMSO no drug control (D) for 24 hours. Cells were then harvested for RNA isolation. Three experiments were done.
# (§4) RNA extraction, labeling, hybridization, and data analysis. RNA was extracted from tumor cells using the Qiagen RNeasy Kit. RNA quality and quantity was checked by the Agilent BioAnalyzer and the NanoDrop® ND-1000 spectrophotometer respectively before further manipulation. The first and second cDNA strands were synthesized from 20 ng of total RNA using the Affymetrix T7 oligo(dT) primer protocol and kit for the two-cycle amplification. To produce amplified biotin-labeled-cRNA, the cDNA was […] by in vitro transcription using the MegaScript kit from Ambion. 15.0 μg of the labeled cRNA was fragmented and re-checked for concentration using the NanoDrop® ND-1000 spectrophotometer. A hybridization cocktail containing Affymetrix spike-in controls and fragmented labeled cRNA was loaded onto the Human U133 Plus 2.0 GeneChip® oligonucleotide array. The Affymetrix array (Affymetrix, Inc. Santa Clara, Calif.) is comprised of over 1,300,000 unique oligonucleotide features that represent greater than 38,500 well-substantiated human genes. The array was hybridized for 16 hours at 45° C. with rotation at 60 rpm then washed and stained with a strepavidin, R-phycoerythrin conjugate stain on the Affymetrix Fluidicis Station 450. Signal amplification was done using biotinylated antistreptavidin. The arrays were scanned using the GeneChip® 3000 confocal laser scanner with autoloader. The images were analyzed and quality control metrics recorded using Affymetrix GCOS software version 1.4. Lastly, the expression value for each gene was calculated using dChip PM-only model based or Plier algorithm.
# (§5) Pairwise comparisons were made as follows: Treated vs. Control (Y vs. D), Modified Drug vs Control (YM/ACY-H vs. D) and Treated vs. Modified Drug (Y vs. YM/ACH-Y) Cel files analyzed using the Bioconductor package of R Statistical programming. Limma analysis generated a reasonable number of changing genes between the samples.
# (§6) The raw data in the .CEL files were normalized by the GCRMA method (robust multi-array analysis). It is implemented in Bioconductor (http://www.bioconductor.org/). The raw signal intensity data were normalized, background corrected and summarized based on certain statistical models, and an expression value, in log 2-scale, is obtained per chip per probe set. Then the null hypothesis was tested that there's no significant changes in gene expression between the treatment pairs. This was done by LIMMA and is also implemented in Bioconductor. It uses empirical Bayes method to estimate the variance in gene expression. One comparison was made, namely, High Grade vs. Low Grade. The raw p-values were adjusted by the Benjamnin-Hochberg method for false discovery rate (FDR) control. All data sets contained a significant number of genes with a p-value less than 0.05, which is that the probability that a gene is NOT differential expressed (false positive) is 1:20.
# [2] = tested on: collagen expression in ES2 cells; test: Microarray gene expression, Table 5
# Protocol: as §1, §2, §3, §4, §5, §6
# [3] = tested on: integrin expression in ES2 cells; test: Microarray gene expression, Table 6
# Protocol: as §1, §2, §3, §4, §5, §6
smiles,measurement,setting,value
C/C=C(/C)C(=O)O[C@H]1[C@H](OC(=O)/C(C)=C\C)[C@@]2(CO)C(CC1(C)C)C1=CCC3[C@@]4(C)CC[C@H](O)C(C)(C)C4CC[C@@]3(C)[C@]1(C)[C@@H](O)[C@H]2O (stereo partly shown) [ACH-Y],"FN1 fibronectin 1, gene expression ratio to no drug control (D)",[1]; probe 210495_x_at,−1.1 folds
same,"FN1 fibronectin 1, gene expression ratio to no drug control (D)",[1]; probe 211719_x_at,−1.2 folds
same,"FN1 fibronectin 1, gene expression ratio to no drug control (D)",[1]; probe 212464_s_at,−1.1 folds
same,"FN1 fibronectin 1, gene expression ratio to no drug control (D)",[1]; probe 216442_x_at,−1.1 folds
same,"P4HB procollagen-proline, 2-oxoglutarate 4-dioxygenase, beta polypeptide, gene expression ratio to no drug control (D)",[2]; probe 200654_at,−1.3 folds
same,"P4HB procollagen-proline, 2-oxoglutarate 4-dioxygenase, beta polypeptide, gene expression ratio to no drug control (D)",[2]; probe 200656_s_at,−1.2 folds
same,"PLOD1 procollagen-lysine 1,2-oxoglutarate 5-dioxygenase 1, gene expression ratio to no drug control (D)",[2]; probe 200827_at,−1.2 folds
same,"COL6A3 collagen, type VI, alpha 3, gene expression ratio to no drug control (D)",[2]; probe 201438_at,−1.5 folds
same,"PLOD3 procollagen-lysine, 2-oxoglutarate 5-dioxygenase 3, gene expression ratio to no drug control (D)",[2]; probe 202185_at,−1.1 folds
same,"COL1A1 collagen, type I, alpha 1, gene expression ratio to no drug control (D)",[2]; probe 202311_s_at,−3.6 folds
same,"PCOLCE procollagen C-endopeptidase enhancer, gene expression ratio to no drug control (D)",[2]; probe 202465_at,−1.6 folds
same,"PLOD2 procollagen-lysine, 2-oxoglutarate 5-dioxygenase 2, gene expression ratio to no drug control (D)",[2]; probe 202619_s_at,−1.2 folds
same,"PLOD2 procollagen-lysine, 2-oxoglutarate 5-dioxygenase 2, gene expression ratio to no drug control (D)",[2]; probe 202620_s_at,−1.3 folds
same,"P4HA2 procollagen-proline, 2-oxoglutarate 4-dioxygenase, alpha polypeptide II, gene expression ratio to no drug control (D)",[2]; probe 202733_at,−1.9 folds
same,"COL5A1 collagen, type V, alpha 1, gene expression ratio to no drug control (D)",[2]; probe 203325_s_at,−2.8 folds
same,"P4HA1 procollagen-proline, 2-oxoglutarate 4-dioxygenase, alpha polypeptide I, gene expression ratio to no drug control (D)",[2]; probe 207543_s_at,−1.5 folds
same,"COL13A1 collagen, type XIII, alpha 1, gene expression ratio to no drug control (D)",[2]; probe 208535_x_at,−1.2 folds
same,"COL18A1 collagen, type XVIII, alpha 1, gene expression ratio to no drug control (D)",[2]; probe 209081_s_at,−1.5 folds
same,"COL13A1 collagen, type XIII, alpha 1, gene expression ratio to no drug control (D)",[2]; probe 211343_s_at,−1.7 folds
same,"COL13A1 collagen, type XIII, alpha 1, gene expression ratio to no drug control (D)",[2]; probe 211809_x_at,−1.5 folds
same,"COL4A2 collagen, type IV, alpha 2, gene expression ratio to no drug control (D)",[2]; probe 211966_at,−1.7 folds
same,"COL4A1 collagen, type IV, alpha 1, gene expression ratio to no drug control (D)",[2]; probe 211981_at,−2.2 folds
same,"COL6A1 collagen, type VI, alpha 1, gene expression ratio to no drug control (D)",[2]; probe 212091_s_at,−1.9 folds
same,"COL5A1 collagen, type V, alpha 1, gene expression ratio to no drug control (D)",[2]; probe 212489_at,−4.1 folds
same,"COL4A5 collagen, type IV, alpha 5 (Alport syndrome), gene expression ratio to no drug control (D)",[2]; probe 213110_s_at,−2.2 folds
same,"COL6A2 collagen, type VI, alpha 2, gene expression ratio to no drug control (D)",[2]; probe 213290_at,−1.5 folds
same,"COL4A6 collagen, type IV, alpha 6, gene expression ratio to no drug control (D)",[2]; probe 213992_at,−1.9 folds
same,"COL10A1 collagen, type X, alpha 1, gene expression ratio to no drug control (D)",[2]; probe 217428_s_at,−1.2 folds
same,"COL5A2 collagen, type V, alpha 2, gene expression ratio to no drug control (D)",[2]; probe 221729_at,−1.8 folds
same,"COL5A2 collagen, type V, alpha 2, gene expression ratio to no drug control (D)",[2]; probe 221730_at,−1.6 folds
same,"COL12A1 collagen, type XII, alpha 1, gene expression ratio to no drug control (D)",[2]; probe 231766_s_at,−2.4 folds
same,"CCBE1 collagen and calcium binding EGF domains 1, gene expression ratio to no drug control (D)",[2]; probe 242324_x_at,−1.8 folds
same,"COL5A1 collagen, type V, alpha 1, gene expression ratio to no drug control (D)",[2]; probe 1556138_a_at,−2.8 folds
same,"P4HA2 procollagen-proline, 2-oxoglutarate 4-dioxygenase, alpha polypeptide II, gene expression ratio to no drug control (D)",[2]; probe 1568611_at,−2.4 folds
same,"expression ratio to the control, collagen",[2]; span over probes of Table 5,−1.1 to −3.6 folds
same,"ITGA3 integrin, alpha 3, gene expression ratio to no drug control (D)",[3]; probe 201474_s_at,−1.5 folds
same,"ITGA6 integrin, alpha 6, gene expression ratio to no drug control (D)",[3]; probe 201656_at,−1.1 folds

# — US10213451B2, “Methods and compounds for modulating the secretion or expression of adhesion proteins or angiopoietins of cells” (PACIFIC ARROW LIMITED, priority 2004, dated 2019)
